# In PMC12116762, “Topobexin targets the Topoisomerase II ATPase domain for beta isoform-selective inhibition and anthracycline cardioprotection” (Nature Communications, 2025):
# “And” between values parts separate entries of the source, which are not always exact repeats. Identical values can stand only once.
# Key:
# caspase 8 = assay: Caspase 8 activity in NVCM (Caspase-Glo); assay type: cell-based, rat; settings: DAU 1.2 μM alone
# Experimental: Caspase activity was assessed on NVCM cells using luciferase-based kits for caspase 3/7, 8 and 9 (Caspase-Glo® 3/7, 8 and 9 assay systems; Promega) according to the manufacturer’s instructions on 384-well plates (Greiner Bio-One). Luminescence signal was measured using Tecan M200 multifunctional plate-reader. All measured groups were corrected for total protein concentration (BCA assay) and were expressed as fold change of the signal over corresponding untreated control group. Each presented data point was obtained from distinct sample. Statistical significance was determined using ratio paired t-test, two-tailed.
# recombinant human TOP2B = molecular target: T1, recombinant human TOP2B (Homo sapiens, UniProt Q02880); assay: In vitro ATPase activity of TOP2B (coupled assay); assay type: biochemical; settings: for SRbeta (SRTOP2B), TOP2 ATPase activity: TOP2A IC50 divided by TOP2B IC50; for IC50: n=3
# T1 construct: Using recombinant full-length human TOP2A and TOP2B enzymes; YFP (N, cleaved yes); made in house; host or cells: HEK293F
# In short: (§1)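 Recombinant human TOP2A or TOP2B, prediluted to 500 nM in HEPES pH 7.5/500 mM NaCl storage buffer, in an NADH-coupled ATP hydrolysis assay, ATP-initiated at 30 °C. NADH fluorescence decay (ex 340, em 480) read every 30 s for 120 cycles. Slopes background-corrected, normalized to untreated controls, and fitted for IC50.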
# recombinant human TOP2A [1] = molecular target: T2, recombinant human TOP2A (Homo sapiens, UniProt P11388); assay: In vitro ATPase activity of TOP2A (coupled assay); assay type: biochemical; settings: for IC50: n=3
# T2 construct: Using recombinant full-length human TOP2A and TOP2B enzymes; YFP (N, cleaved yes); made in house; host or cells: HEK293F
# In short: as §1
# recombinant human TOP2A [2] = molecular target: T2, recombinant human TOP2A; assay: DNA decatenation assay, recombinant TOP2A; assay type: biochemical; settings: for IC50: enzyme expressed in HEK293F, n=3
# Experimental: The human topoisomerase II decatenation assay was performed to determine the inhibitory effects of BNS-22 and new compounds as previously described with minor modifications[14],[36]. The assay was performed using recombinant human TOP2A or TOP2B generated using the HEK293F YFP-tag expression system as previously described[18],[19],[36]. Briefly, plasmids encoding YFP-TOP2A or YFP-TOP2B were transfected into HEK293F cells (Catalog number 11625019, Thermofisher Scientific), and TOP2 proteins were isolated from cell lysates by anti-YFP nanobody affinity chromatography. After elution by TEV protease cleavage, TOP2 proteins were FPLC purified by sequential cation exchange and size exclusion chromatography. Plasmid encoding TOP2B C88Y was generated by round-the-horn PCR mutagenesis and the sequence was verified by full-plasmid sequencing. Purified TOP2 proteins were stored in a storage buffer containing 20 mM HEPES pH 7.5, 500 mM NaCl, 0.5 mM TCEP, 25% (v/v) glycerol at -80 °C. For decatenation assays, purified TOP2 proteins were incubated with 200 ng kDNA (Topogen) in a reaction buffer containing 50 mM Tris−HCl (pH 8), 100 mM NaCl, 10 mM MgCl2, 0.5 mM DTT, 2 mM ATP, 0.1 mM tris(2-carboxyethyl)phosphine (TCEP), 5% (v/v) glycerol, 70 μg/mL bovine serum albumin, and 1/10 volume of each compound diluted in 10% DMSO (final DMSO concentration 1%) for 40 min at 37 °C. The reaction was then stopped by the addition of gel loading buffer (0.5 volumes of 60% (w/v) glycerol, 60 mM EDTA, 20 mM Tris−HCl (pH 7.5), 0.5 mg/mL bromophenol blue) and the samples were placed on ice. Reaction products were resolved by agarose gel electrophoresis in TBE buffer containing GelRed stain (Biotium). Gels were visualized using an iBright CL1000 (Thermofisher Scientific). Band intensities were quantified using FIJI, and the signal of the treated samples was normalized to the value of the control (untreated sample; 100%) present on the same gel. The normalized signal of three independent measurements was then expressed as mean ± SD. Each presented data point was obtained from distinct sample. Normalized values were plotted as a function of inhibitor concentration to determine IC50 values by nonlinear regression with variable slope using Prism 9 (GraphPad).
# [3] = 0.03125 μM, independent replicates
# [4] = 0.0625 μM, independent replicates
# [5] = 0.125 μM, independent replicates
# [6] = 0.25 μM, independent replicates
# T2 sequence (P11388 whole entry): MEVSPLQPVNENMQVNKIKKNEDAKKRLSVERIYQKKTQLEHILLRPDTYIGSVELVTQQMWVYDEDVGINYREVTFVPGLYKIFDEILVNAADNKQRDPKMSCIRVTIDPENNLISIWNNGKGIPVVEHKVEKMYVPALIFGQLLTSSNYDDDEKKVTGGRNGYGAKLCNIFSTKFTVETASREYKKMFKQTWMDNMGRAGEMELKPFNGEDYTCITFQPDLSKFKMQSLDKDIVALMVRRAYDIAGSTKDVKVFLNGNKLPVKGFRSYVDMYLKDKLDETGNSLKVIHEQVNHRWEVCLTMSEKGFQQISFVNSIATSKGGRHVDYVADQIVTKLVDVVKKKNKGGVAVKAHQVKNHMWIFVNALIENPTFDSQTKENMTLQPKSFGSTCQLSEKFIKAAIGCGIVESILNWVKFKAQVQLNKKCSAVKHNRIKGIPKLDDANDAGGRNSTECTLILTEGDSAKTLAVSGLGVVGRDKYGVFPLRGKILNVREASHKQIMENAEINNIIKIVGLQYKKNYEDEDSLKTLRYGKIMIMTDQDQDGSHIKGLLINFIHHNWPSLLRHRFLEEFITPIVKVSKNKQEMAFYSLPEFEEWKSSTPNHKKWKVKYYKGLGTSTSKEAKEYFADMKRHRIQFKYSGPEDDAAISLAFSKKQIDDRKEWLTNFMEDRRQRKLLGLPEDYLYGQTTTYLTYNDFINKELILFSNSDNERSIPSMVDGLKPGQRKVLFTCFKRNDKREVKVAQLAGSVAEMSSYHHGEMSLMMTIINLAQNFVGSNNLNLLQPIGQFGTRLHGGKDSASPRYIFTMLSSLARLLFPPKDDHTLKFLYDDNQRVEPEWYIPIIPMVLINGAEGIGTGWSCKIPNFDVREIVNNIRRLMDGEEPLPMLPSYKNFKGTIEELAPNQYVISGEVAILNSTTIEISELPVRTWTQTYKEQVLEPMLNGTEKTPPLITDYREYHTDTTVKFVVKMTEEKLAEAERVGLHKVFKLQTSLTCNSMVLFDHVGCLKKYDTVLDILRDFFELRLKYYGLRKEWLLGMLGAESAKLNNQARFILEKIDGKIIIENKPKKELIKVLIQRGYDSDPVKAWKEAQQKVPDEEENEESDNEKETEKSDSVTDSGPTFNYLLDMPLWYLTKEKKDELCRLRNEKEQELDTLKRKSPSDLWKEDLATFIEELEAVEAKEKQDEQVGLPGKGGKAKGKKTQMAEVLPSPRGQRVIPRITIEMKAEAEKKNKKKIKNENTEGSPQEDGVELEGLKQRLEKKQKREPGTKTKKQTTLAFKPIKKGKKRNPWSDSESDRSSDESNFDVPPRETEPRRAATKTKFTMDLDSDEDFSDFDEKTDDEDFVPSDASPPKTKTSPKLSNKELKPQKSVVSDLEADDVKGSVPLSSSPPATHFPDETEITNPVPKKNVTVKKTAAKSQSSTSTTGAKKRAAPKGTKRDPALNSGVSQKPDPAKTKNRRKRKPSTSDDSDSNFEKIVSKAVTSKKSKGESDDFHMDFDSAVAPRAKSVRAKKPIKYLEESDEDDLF
# T1 sequence (Q02880 1-1621 isoform Q02880-2): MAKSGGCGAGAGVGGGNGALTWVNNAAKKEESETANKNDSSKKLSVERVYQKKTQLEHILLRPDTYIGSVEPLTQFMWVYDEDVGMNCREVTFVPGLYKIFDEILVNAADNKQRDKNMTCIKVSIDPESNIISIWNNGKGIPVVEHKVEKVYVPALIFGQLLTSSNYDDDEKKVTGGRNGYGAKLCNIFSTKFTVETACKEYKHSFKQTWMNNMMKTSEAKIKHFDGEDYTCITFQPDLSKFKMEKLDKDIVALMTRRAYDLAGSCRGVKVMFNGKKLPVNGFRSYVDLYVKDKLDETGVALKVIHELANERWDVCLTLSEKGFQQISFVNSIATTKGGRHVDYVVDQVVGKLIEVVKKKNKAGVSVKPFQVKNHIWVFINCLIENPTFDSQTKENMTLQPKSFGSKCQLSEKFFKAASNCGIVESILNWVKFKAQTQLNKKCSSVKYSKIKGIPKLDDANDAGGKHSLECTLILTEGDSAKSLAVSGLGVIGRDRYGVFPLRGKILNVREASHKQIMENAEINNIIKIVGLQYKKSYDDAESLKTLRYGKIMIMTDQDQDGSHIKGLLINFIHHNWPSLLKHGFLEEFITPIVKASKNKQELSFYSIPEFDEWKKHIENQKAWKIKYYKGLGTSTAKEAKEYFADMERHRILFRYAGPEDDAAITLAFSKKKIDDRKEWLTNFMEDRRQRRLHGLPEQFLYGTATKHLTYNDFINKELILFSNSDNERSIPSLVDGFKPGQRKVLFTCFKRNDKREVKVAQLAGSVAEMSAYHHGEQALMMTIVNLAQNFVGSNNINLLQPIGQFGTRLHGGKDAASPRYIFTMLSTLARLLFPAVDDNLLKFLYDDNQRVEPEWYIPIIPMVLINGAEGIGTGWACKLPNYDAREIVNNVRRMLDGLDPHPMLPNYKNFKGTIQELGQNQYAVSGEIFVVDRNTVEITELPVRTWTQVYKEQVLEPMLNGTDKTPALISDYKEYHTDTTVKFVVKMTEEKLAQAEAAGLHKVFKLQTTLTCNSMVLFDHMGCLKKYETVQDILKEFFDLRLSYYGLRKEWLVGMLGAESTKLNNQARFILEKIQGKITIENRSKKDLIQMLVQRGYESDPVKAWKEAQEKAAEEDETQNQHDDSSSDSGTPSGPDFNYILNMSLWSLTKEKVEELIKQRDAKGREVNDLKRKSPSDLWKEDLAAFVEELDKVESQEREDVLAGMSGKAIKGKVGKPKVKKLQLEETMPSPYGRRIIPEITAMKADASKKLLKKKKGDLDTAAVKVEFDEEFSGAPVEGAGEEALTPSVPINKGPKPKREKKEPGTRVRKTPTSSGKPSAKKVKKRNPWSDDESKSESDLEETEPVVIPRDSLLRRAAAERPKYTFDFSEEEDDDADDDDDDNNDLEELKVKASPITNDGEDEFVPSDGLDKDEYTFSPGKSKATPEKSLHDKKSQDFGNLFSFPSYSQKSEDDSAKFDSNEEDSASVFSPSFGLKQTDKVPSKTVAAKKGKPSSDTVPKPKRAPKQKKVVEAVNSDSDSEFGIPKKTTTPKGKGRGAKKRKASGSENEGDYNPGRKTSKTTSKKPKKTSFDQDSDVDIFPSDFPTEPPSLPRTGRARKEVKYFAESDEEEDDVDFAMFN
smiles,measurement,setting,value
"COc1cccc2c1C(=O)c1c(O)c3c(c(O)c1C2=O)C[C@@](O)(C(C)=O)C[C@@H]3O[C@H]1C[C@H](N)[C@H](O)[C@H](C)O1 [DAU, daunorubicin, reference compound]","Csp8 activity, mean",caspase 8,2.2056 fold change
same,Csp8 activity,caspase 8; independent replicates,1.777 fold change and 1.7129 fold change and 3.182 fold change and 1.952 fold change and 2.3428 fold change and 2.2669 fold change
CCCc1cc(=O)oc2c(C(=O)N3CCCc4ccccc43)c(OC)cc(OC)c12 [BNS-22],"Normalized % TOP2B activity, ATPase",recombinant human TOP2B; [3],92.74% and 92.18% and 98.3%
same,"Normalized % TOP2B activity, ATPase",recombinant human TOP2B; [4],92.24% and 94.66% and 102.1588%
same,"Normalized % TOP2B activity, ATPase",recombinant human TOP2B; [5],100.3668% and 84.21% and 108.4459%
same,"Normalized % TOP2B activity, ATPase",recombinant human TOP2B; [6],91.2179% and 87.24% and 97.62%
same,"Normalized % TOP2B activity, ATPase","recombinant human TOP2B; 0.5 μM, independent replicates",80.5% and 76.19% and 88.45%
same,"Normalized % TOP2B activity, ATPase","recombinant human TOP2B; 1 μM, independent replicates",58.26% and 48.84% and 67.64%
same,"Normalized % TOP2B activity, ATPase","recombinant human TOP2B; 2 μM, independent replicates",31.308% and 30.02% and 38.85%
same,"Normalized % TOP2B activity, ATPase","recombinant human TOP2B; 4 μM, independent replicates",10.88% and 8.636% and 13.51%
same,"Normalized % TOP2B activity, ATPase","recombinant human TOP2B; 8 μM, independent replicates",2.82% and 1.793% and 10.43%
same,"Normalized % TOP2B activity, ATPase","recombinant human TOP2B; 16 μM, independent replicates",1.695% and 1.187% and 0.8652%
same,"Normalized % TOP2B activity, ATPase","recombinant human TOP2B; 32 μM, independent replicates",0.8806% and 0.9028% and 0.7954%
same,selectivity ratio in favour of TOP2B (SRTOP2B),recombinant human TOP2B; ATP hydrolysis and DNA decatenation,1.5–1.6
same,"SRbeta (SRTOP2B), TOP2 ATPase activity",recombinant human TOP2B,1.5
same,IC50,recombinant human TOP2B,870 nM
same,"Normalized % TOP2A activity, ATPase",recombinant human TOP2A [1]; [3],106.5339% and 96.82% and 104.97%
same,"Normalized % TOP2A activity, ATPase",recombinant human TOP2A [1]; [4],99.93% and 96.81% and 104.654%
same,"Normalized % TOP2A activity, ATPase",recombinant human TOP2A [1]; [5],97.92% and 87.09% and 103.8686%
same,"Normalized % TOP2A activity, ATPase",recombinant human TOP2A [1]; [6],84.39% and 86.41% and 95.01%
same,"Normalized % TOP2A activity, ATPase","recombinant human TOP2A [1]; 0.5 μM, independent replicates",68.7163% and 74.39% and 48.12%
same,"Normalized % TOP2A activity, ATPase","recombinant human TOP2A [1]; 1 μM, independent replicates",44.71% and 47.48% and 56.42%
same,"Normalized % TOP2A activity, ATPase","recombinant human TOP2A [1]; 2 μM, independent replicates",21.32% and 23.49% and 28.53%
same,"Normalized % TOP2A activity, ATPase","recombinant human TOP2A [1]; 4 μM, independent replicates",7.817% and 9.176% and 12.94%
same,"Normalized % TOP2A activity, ATPase","recombinant human TOP2A [1]; 8 μM, independent replicates",4.538% and 5.681% and 5.457%
same,"Normalized % TOP2A activity, ATPase","recombinant human TOP2A [1]; 16 μM, independent replicates",3.325% and 1.312% and 2.254%
same,"Normalized % TOP2A activity, ATPase","recombinant human TOP2A [1]; 32 μM, independent replicates",1.897% and 0.9839% and 2.191%
same,IC50,recombinant human TOP2A [1],1270 nM
same,"Normalized % TOP2A activity, decatenation","recombinant human TOP2A [2]; 0.029 μM, independent replicates",129.2% and 104.9% and 108.1%
same,"Normalized % TOP2A activity, decatenation","recombinant human TOP2A [2]; 0.059 μM, independent replicates",115.3% and 107.3% and 87.18%
same,"Normalized % TOP2A activity, decatenation","recombinant human TOP2A [2]; 0.117 μM, independent replicates",112.3% and 85.14% and 77.75%
same,"Normalized % TOP2A activity, decatenation","recombinant human TOP2A [2]; 0.234 μM, independent replicates",113.6% and 104.1% and 111.1%
same,"Normalized % TOP2A activity, decatenation","recombinant human TOP2A [2]; 0.469 μM, independent replicates",107.6% and 108.2% and 94.85%
same,"Normalized % TOP2A activity, decatenation","recombinant human TOP2A [2]; 0.938 μM, independent replicates",110.1% and 99.05% and 142.1%
same,"Normalized % TOP2A activity, decatenation","recombinant human TOP2A [2]; 1.875 μM, independent replicates",103.6% and 97.25% and 87.84%
same,"Normalized % TOP2A activity, decatenation","recombinant human TOP2A [2]; 3.750 μM, independent replicates",92.41% and 84.64% and 69.95%
same,"Normalized % TOP2A activity, decatenation","recombinant human TOP2A [2]; 7.500 μM, independent replicates",58.26% and 36.7% and 30.82%
same,"Normalized % TOP2A activity, decatenation","recombinant human TOP2A [2]; 15.000 μM, independent replicates",19.52% and 10.3% and 12.12%
same,"Normalized % TOP2A activity, decatenation","recombinant human TOP2A [2]; 30.000 μM, independent replicates",7.598% and 6.508% and 9.979%
same,IC50,recombinant human TOP2A [2],6510 nM
C[C@@H](CN1CC(=O)NC(=O)C1)N1CC(=O)NC(=O)C1 [dexrazoxane],remaining activity at 0.03125 µM,"recombinant human TOP2B; 0.03125 μM, independent replicates, read-out: Normalized % TOP2B activity, ATPase",97.9%
same,remaining activity at 0.0625 µM,"recombinant human TOP2B; 0.0625 μM, independent replicates, read-out: Normalized % TOP2B activity, ATPase",99.9%
same,remaining activity at 0.125 µM,"recombinant human TOP2B; 0.125 μM, independent replicates, read-out: Normalized % TOP2B activity, ATPase",96.3%
same,remaining activity at 0.25 µM,"recombinant human TOP2B; 0.25 μM, independent replicates, read-out: Normalized % TOP2B activity, ATPase",88.7%
same,remaining activity at 0.5 µM,"recombinant human TOP2B; 0.5 μM, independent replicates, read-out: Normalized % TOP2B activity, ATPase",80.9%
same,remaining activity at 1 µM,"recombinant human TOP2B; 1 μM, independent replicates, read-out: Normalized % TOP2B activity, ATPase",74.8%
same,remaining activity at 2 µM,"recombinant human TOP2B; 2 μM, independent replicates, read-out: Normalized % TOP2B activity, ATPase",68.4%
same,remaining activity at 4 µM,"recombinant human TOP2B; 4 μM, independent replicates, read-out: Normalized % TOP2B activity, ATPase",45%
same,remaining activity at 8 µM,"recombinant human TOP2B; 8 μM, independent replicates, read-out: Normalized % TOP2B activity, ATPase",24.3%
same,remaining activity at 16 µM,"recombinant human TOP2B; 16 μM, independent replicates, read-out: Normalized % TOP2B activity, ATPase",14.6%
same,remaining activity at 32 µM,"recombinant human TOP2B; 32 μM, independent replicates, read-out: Normalized % TOP2B activity, ATPase",13.2%
same,relative inhibition of TOP2A vs TOP2B,recombinant human TOP2B; ATPase,inhibits ATP hydrolysis for both isoforms with equal potency
same,"SRbeta (SRTOP2B), TOP2 ATPase activity",recombinant human TOP2B,0.89
same,IC50,recombinant human TOP2B,2550 nM
same,remaining activity at 0.125 µM,"recombinant human TOP2A [1]; 0.125 μM, independent replicates, read-out: Normalized % TOP2A activity, ATPase",90.6%
same,remaining activity at 0.25 µM,"recombinant human TOP2A [1]; 0.25 μM, independent replicates, read-out: Normalized % TOP2A activity, ATPase",86.6%
same,remaining activity at 1 µM,"recombinant human TOP2A [1]; 1 μM, independent replicates, read-out: Normalized % TOP2A activity, ATPase",62.9%
same,remaining activity at 4 µM,"recombinant human TOP2A [1]; 4 μM, independent replicates, read-out: Normalized % TOP2A activity, ATPase",29.5%
same,remaining activity at 8 µM,"recombinant human TOP2A [1]; 8 μM, independent replicates, read-out: Normalized % TOP2A activity, ATPase",19%
same,remaining activity at 16 µM,"recombinant human TOP2A [1]; 16 μM, independent replicates, read-out: Normalized % TOP2A activity, ATPase",14.4%
same,IC50,recombinant human TOP2A [1],2270 nM
same,remaining activity at 0.059 µM,"recombinant human TOP2A [2]; 0.059 μM, independent replicates, read-out: Normalized % TOP2A activity, decatenation",112%
same,remaining activity at 0.469 µM,"recombinant human TOP2A [2]; 0.469 μM, independent replicates, read-out: Normalized % TOP2A activity, decatenation",114%
same,remaining activity at 0.938 µM,"recombinant human TOP2A [2]; 0.938 μM, independent replicates, read-out: Normalized % TOP2A activity, decatenation",94.4%
same,remaining activity at 1.875 µM,"recombinant human TOP2A [2]; 1.875 μM, independent replicates, read-out: Normalized % TOP2A activity, decatenation",68.7%
same,remaining activity at 7.5 µM,"recombinant human TOP2A [2]; 7.500 μM, independent replicates, read-out: Normalized % TOP2A activity, decatenation",33.6%
same,IC50,recombinant human TOP2A [2],3350 nM
